Tested on: Mitochondria-located protein genes
Assay: DNA chip mRNA expression in yeast, mitochondria-located protein genes (Table 2)
Type: cell-based, Saccharomyces cerevisiae S288C
Conditions: cells incubated two hours with the chemical substance
How it was run: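 First, S288C yeast grown in YPD at 25° C. are dosed in log phase with one toxicant (growth-inhibiting, not lethal) for 2 h. Next, total RNA is extracted and poly(A) mRNA isolated and reverse-transcribed with Cy3/Cy5-dUTP. Finally, whole-genome chip fluorescence is read relative to unexposed cells.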

Q: What does the source list for `C=CC=O` [(14), acrolein]?
A: The level of expressed mRNA in the presence of chemical substance/The level of expressed mRNA in the absence of chemical substance (yeast gene YJR121W): 0.7; The level of expressed mRNA in the presence of chemical substance/The level of expressed mRNA in the absence of chemical substance (yeast gene YKL003C): 2.0; The level of expressed mRNA in the presence of chemical substance/The level of expressed mRNA in the absence of chemical substance (yeast gene YKL016C): 1.6; The level of expressed mRNA in the presence of chemical substance/The level of expressed mRNA in the absence of chemical substance (yeast gene YKL141W): 1.4; The level of expressed mRNA in the presence of chemical substance/The level of expressed mRNA in the absence of chemical substance (yeast gene YKL142W): 2.3; The level of expressed mRNA in the presence of chemical substance/The level of expressed mRNA in the absence of chemical substance (yeast gene YKL148C): 0.8; The level of expressed mRNA in the presence of chemical substance/The level of expressed mRNA in the absence of chemical substance (yeast gene YKL170W): 1.3; The level of expressed mRNA in the presence of chemical substance/The level of expressed mRNA in the absence of chemical substance (yeast gene YKL194C): 1.4; The level of expressed mRNA in the presence of chemical substance/The level of expressed mRNA in the absence of chemical substance (yeast gene YKR066C): 1.5; The level of expressed mRNA in the presence of chemical substance/The level of expressed mRNA in the absence of chemical substance (yeast gene YLL041C): 1.2; The level of expressed mRNA in the presence of chemical substance/The level of expressed mRNA in the absence of chemical substance (yeast gene YLR038C): 1.6; The level of expressed mRNA in the presence of chemical substance/The level of expressed mRNA in the absence of chemical substance (yeast gene YLR259C): 0.8; The level of expressed mRNA in the presence of chemical substance/The level of expressed mRNA in the absence of chemical substance (yeast gene YLR295C): 1.2; The level of expressed mRNA in the presence of chemical substance/The level of expressed mRNA in the absence of chemical substance (yeast gene YLR304C): 0.7; The level of expressed mRNA in the presence of chemical substance/The level of expressed mRNA in the absence of chemical substance (yeast gene YLR348C): 1.0; The level of expressed mRNA in the presence of chemical substance/The level of expressed mRNA in the absence of chemical substance (yeast gene YLR395C): 1.7; The level of expressed mRNA in the presence of chemical substance/The level of expressed mRNA in the absence of chemical substance (yeast gene YML054C): 2.1; The level of expressed mRNA in the presence of chemical substance/The level of expressed mRNA in the absence of chemical substance (yeast gene YML120C): 0.8; The level of expressed mRNA in the presence of chemical substance/The level of expressed mRNA in the absence of chemical substance (yeast gene YML129C): 1.4; The level of expressed mRNA in the presence of chemical substance/The level of expressed mRNA in the absence of chemical substance (yeast gene YMR023C): 1.6; The level of expressed mRNA in the presence of chemical substance/The level of expressed mRNA in the absence of chemical substance (yeast gene YMR035W): 1.3; The level of expressed mRNA in the presence of chemical substance/The level of expressed mRNA in the absence of chemical substance (yeast gene YMR083W): 0.8; The level of expressed mRNA in the presence of chemical substance/The level of expressed mRNA in the absence of chemical substance (yeast gene YMR089C): 0.9; The level of expressed mRNA in the presence of chemical substance/The level of expressed mRNA in the absence of chemical substance (yeast gene YMR152W): 1.1; The level of expressed mRNA in the presence of chemical substance/The level of expressed mRNA in the absence of chemical substance (yeast gene YMR203W): 0.7; The level of expressed mRNA in the presence of chemical substance/The level of expressed mRNA in the absence of chemical substance (yeast gene YMR267W): 1.0; The level of expressed mRNA in the presence of chemical substance/The level of expressed mRNA in the absence of chemical substance (yeast gene YNL055C): 0.9; The level of expressed mRNA in the presence of chemical substance/The level of expressed mRNA in the absence of chemical substance (yeast gene YNL071W): 0.8; The level of expressed mRNA in the presence of chemical substance/The level of expressed mRNA in the absence of chemical substance (yeast gene YNL073W): 0.7; The level of expressed mRNA in the presence of chemical substance/The level of expressed mRNA in the absence of chemical substance (yeast gene YNL104C): 0.9; The level of expressed mRNA in the presence of chemical substance/The level of expressed mRNA in the absence of chemical substance (yeast gene YNL256W): 0.7; The level of expressed mRNA in the presence of chemical substance/The level of expressed mRNA in the absence of chemical substance (yeast gene YOL096C): 1.4; The level of expressed mRNA in the presence of chemical substance/The level of expressed mRNA in the absence of chemical substance (yeast gene YOR020C): 1.6; The level of expressed mRNA in the presence of chemical substance/The level of expressed mRNA in the absence of chemical substance (yeast gene YOR037W): 1.0; The level of expressed mRNA in the presence of chemical substance/The level of expressed mRNA in the absence of chemical substance (yeast gene YOR100C): 1.4; The level of expressed mRNA in the presence of chemical substance/The level of expressed mRNA in the absence of chemical substance (yeast gene YOR130C): 1.3; The level of expressed mRNA in the presence of chemical substance/The level of expressed mRNA in the absence of chemical substance (yeast gene YOR142W): 0.8; The level of expressed mRNA in the presence of chemical substance/The level of expressed mRNA in the absence of chemical substance (yeast gene YOR150W): 1.6; The level of expressed mRNA in the presence of chemical substance/The level of expressed mRNA in the absence of chemical substance (yeast gene YOR176W): 0.8; The level of expressed mRNA in the presence of chemical substance/The level of expressed mRNA in the absence of chemical substance (yeast gene YOR187W): 0.6; The level of expressed mRNA in the presence of chemical substance/The level of expressed mRNA in the absence of chemical substance (yeast gene YOR316C): 1.0; The level of expressed mRNA in the presence of chemical substance/The level of expressed mRNA in the absence of chemical substance (yeast gene YPL040C): 1.1; The level of expressed mRNA in the presence of chemical substance/The level of expressed mRNA in the absence of chemical substance (yeast gene YPL134C): 1.4; The level of expressed mRNA in the presence of chemical substance/The level of expressed mRNA in the absence of chemical substance (yeast gene YPL135W): 1.1; The level of expressed mRNA in the presence of chemical substance/The level of expressed mRNA in the absence of chemical substance (yeast gene YPL215W): 1.2; The level of expressed mRNA in the presence of chemical substance/The level of expressed mRNA in the absence of chemical substance (yeast gene YPL262W): 1.2; The level of expressed mRNA in the presence of chemical substance/The level of expressed mRNA in the absence of chemical substance (yeast gene YPR024W): 0.7; The level of expressed mRNA in the presence of chemical substance/The level of expressed mRNA in the absence of chemical substance (yeast gene YPR037C): 1.6; The level of expressed mRNA in the presence of chemical substance/The level of expressed mRNA in the absence of chemical substance (yeast gene YPR047W): 1.0; The level of expressed mRNA in the presence of chemical substance/The level of expressed mRNA in the absence of chemical substance (yeast gene YPR134W): 1.5

Reference: patent US8192962B2, “Processes for detecting toxic substances” (Daikin Industries, Ltd., priority 2001, dated 2012)
